According to US20180036302A1, “TREATMENT OF MULTIPLE SCLEROSIS WITH COMBINATION OF LAQUINIMOD AND A STATIN” (Teva Pharmaceutical Industries Ltd., priority 2014, published 2018):

Legend:
[1] = system: MOG induced chronic Experimental Autoimmune Encephalomyelitis (EAE) model; test: MOG induced chronic EAE in C57Bl/6 mice; format: in vivo; conditions: for % inhibition 1 (incidence) / % inhibition 2 (MMS) / % inhibition 3 (GMS): vs vehicle
in vivo = conditions: male, C57BL/6, mouse, po, 5 mg/kg
Description: For all PO administration groups: 1% MC in water (all PO formulations were made just prior to use).
Fasted overnight and fed 4 hr post dose, free access to water
• 1. For plasma samples: An aliquot of 30 μL plasma sample was added with 150 μL ACN which contains IS (Dexamethasane 40 ng/mL, 5 ng/mL) for protein precipitation. The mixture was vortexed for 2 rain and centrifuged at 12000 rpm for 5 min. The 2 μL supernatant was injected into LC-MS/MS. • 2. For diluted plasma samples: An aliquot of 10 μL plasma sample was added with 90 μL blank plasma to obtain the diluted plasma samples, and the sample dilution factor is 10. An aliquot of 10 μL 10-folder-diluted plasma sample was added with 40 μL blank plasma to obtain the diluted plasma samples, and the sample dilution factor is 50. The exaction procedure for diluted samples was same as those for non-diluted samples.
The animals were restrained manually at the designated time points. Approx. 150 μL of blood samples were taken from the animals into K2EDTA tubes via retro-orbital puncture or cardiac puncture for terminal bleeding under anesthesia with Isoflurane. Blood sample was put on ice and centrifuged at 2000 g for 5 min (4° C.) to obtain plasma sample within 15 minutes. Plasma samples were snap frozen by placing into dry-ice.
The plasma samples were stored at approximately −70° C. until analysis. The backup samples are discarded after two months unless specified. The unused dosing solutions are discarded within 1 week after completion of the study.

Multiple Sclerosis = conditions: two phase III trials; cited from earlier work
[2] = in vivo; cited from earlier work
[3] = Atorvastatin 10 mg/kg BID gavage, Day 1-30
[4] = Atorvastatin 50 mg/kg BID gavage, Day 1-30
[5] = Laquinimod 5 mg/kg/day gavage, Day 1-30
[6] = Laquinimod 25 mg/kg/day gavage, Day 1-30

CC(C)c1c(C(=O)Nc2ccccc2)c(-c2ccccc2)c(-c2ccc(F)cc2)n1CC[C@@H](O)C[C@@H](O)CC(=O)O [Atorvastatin, atorvastatin]
Duration [1, 3]: 18.1 ± 2.1 days
GMS value [1, 3]: 2.5 ± 0.6
Incidence [1, 3]: 15/15
MMS value [1, 3]: 3.6 ± 0.5
Onset [1, 3]: 12.4 ± 1.2 days
% inhibition 1 (incidence) [1, 3]: 0%
% inhibition 2 (MMS) [1, 3]: 2.7%
% inhibition 3 (GMS) [1, 3]: 7.4%
Duration [1, 4]: 17.2 ± 4.9 days
GMS value [1, 4]: 2.3 ± 0.7
Incidence [1, 4]: 14/15
MMS value [1, 4]: 3.3 ± 1.0
Onset [1, 4]: 13.8 ± 4.9 days
% inhibition 1 (incidence) [1, 4]: 6.7%
% inhibition 2 (MMS) [1, 4]: 10.8%
% inhibition 3 (GMS) [1, 4]: 14.8%
Mortality ([1]; mouse, in vivo): 0/15

CCN(C(=O)c1c(O)c2c(Cl)cccc2n(C)c1=O)c1ccccc1 [Laquinimod]
AUCINF (in vivo): 71465 ng·h/mL
AUClast (in vivo): 71302 ng·h/mL
AUC(0-inf) (in vivo; AUCINF): 86900 ng·h/mL
AUC(0-t) (in vivo; AUClast): 86700 ng·h/mL
Cmax (in vivo; Cmax): 31100 ng/mL
half-life (in vivo; Terminal t1/2): 3.01 h
Tmax (in vivo; Tmax): 0.5 h
safety and tolerability profile (Multiple Sclerosis): favorable safety and tolerability profile
Duration [1, 5]: 13.5 ± 7.9 days
GMS value [1, 5]: 1.4 ± 1.0
Incidence [1, 5]: 12/15
MMS value [1, 5]: 2.3 ± 1.3
Mortality [1, 5]: 0/15
Onset [1, 5]: 16.3 ± 7.7 days
% inhibition 1 (incidence) [1, 5]: 20%
% inhibition 2 (MMS) [1, 5]: 37.8%
% inhibition 3 (GMS) [1, 5]: 48.1%
Duration [1, 6]: 4.1 ± 6.0 days
GMS value [1, 6]: 0.3 ± 0.6
Incidence [1, 6]: 5/15
MMS value [1, 6]: 0.7 ± 1.0
Mortality [1, 6]: 0/15
Onset [1, 6]: 25.63 ± 7.5 days
% inhibition 1 (incidence) [1, 6]: 66.7%
% inhibition 2 (MMS) [1, 6]: 81.1%
% inhibition 3 (GMS) [1, 6]: 91.9%
oral bioavailability [2]: high oral bioavailability
